Results from patent US5468760A, “Aralkyl-N-hydroxyureas as inhibitors of 5-lipoxygenase and oxidation of low density lipoprotein” (American Home Products Corporation, priority 1993, dated 1995).

Legend:
Lipoxygenase = assay: Ex-Vivo Measurement of Lipoxygenase Inhibition in Orally Dosed Rats (LTB4); set-up: species or system rat (male Sprague Dawley); conditions: p.o.
Protocol: 2. Ex-Vivo Measurement of Lipoxygenase Inhibition in Orally Dosed Rats
Male Sprague Dawley rats (Charles River) weighing between 180 g and 200 g were dosed orally with an invention compound (1-25 mg/kg, po) suspended in 0.5% Tween 80®. After an interval of 3 or 6 hours, the rats were anesthetized with metofane (n=4/group) and blood collected in heparinized tubes. White blood cell counts and differentials were made. One ml of blood from each animal was placed in a 5 ml plastic tube in a shaker bath at 37° C. A23187 at a final concentration of 10 μM was added to the blood and the blood vortexed and incubated for 15 min at […] with gentle shaking. Incubation was terminated by vortexing sample and centrifuging immediately at 1200 xG for 15 min at 4° C. The plasma was transferred to 15 ml plastic tubes each containing 8 ml of methanol to precipitate protein followed by vortexing. The samples were stored at -70 ° C. overnight and the next day the samples were centrifuged at 800 xG for 15 min to pellet the precipitate. The samples were dried in a Savant SpeedVac Concentrator Model SVC 200H and reconstituted to the original volume with cold RIA or ELISA buffer. The reconstituted samples were stored at -70° C. until assayed. The assay for LTB4 was performed according to the directions of the [^3 H]RIA kit or ELISA kit (Seragen). The total metabolite level in 1 ml of blood is calculated and reported as ng/10^6 neutrophils. Significance is determined by a one-way analysis of variance with LSD comparisons to control (p≤0.05).

LTB4 Synthesis = assay: Reverse Passive Arthus Reaction (pleurisy), LTB4 in pleural exudate; format: in vivo, rat (male Lewis); conditions: p.o.
Protocol: 3. Reverse Passive Arthus Reaction
A reverse passive Arthus reaction is induced in the pleural cavity of male Lewis rats (150-200 g; fasted overnight prior to use) by the intravenous administration of bovine serum albumin (BSA; 4 mg/0.2 ml) followed 30 minutes later by the injection of rabbit anti-BSA (1 mg/0.2 ml; lyophilized IgG fraction; Organon Teknika, West Chester, Pa.) into the right pleural space under halothane anesthesia. Drugs or vehicle (0.5% Tween-80) control are administered orally in a volume of 1 ml/100 g body weight at 1 hour prior to the anti-BSA. Animals are sacrificed at either the time of peak eicosanoid production (i.e. 5 minutes after anti-BSA for immunoreactive TxB2, 10 minutes for immunoreactive LTB4, 20 minutes for immunoreactive LTC4) or at the time of peak neutrophil infiltration (4 hours after anti-BSA) by CO2 inhalation. The pleural cavity is then exposed., the fluid exudate removed by gentle vacuum aspiration and the volume of exudate is recorded. For the determination of cellular infiltration, the pleural cavity is rinsed with 3 ml of 0.1% EDTA in sterile saline, and the recovered wash is pooled with the exudate. Cell number is determined on a model ZBI Coulter counter. For determination of eicosanoid production, undiluted pleural exudate is microfuged and the supernatant is extracted with ethanol (8-10 times volume). Extracts are either stored at -20° C., or are evaporated to dryness under a stream of N2 and reconstituted in radioimmunoassay (RIA) buffer.
Eicosanoids are quantitated by RIA according to the procedure specified by the RIA kit manufacturer (Advanced Magnetics, Cambridge, Mass.). Briefly, 100 μl of ^3 H-labeled eicosanoid and 100 μl of specific antibody are sequentially added to 100 μl of extracted pleural exudate in BGG-phosphate buffer which contains 0.01M phosphate, 0.1% bovine gamma globulin and 0.1% sodium azide at pH 7.0. Antibody-bound eicosanoid is separated from unbound eicosanoid by the addition of 750 μl of dextran (0.4%)-coated charcoal (Norit A) containing 0.1% sodium azide. The mixture is centrifuged at 2000 RPM at 5° C. for 15 minutes to pellet the charcoal and adsorbed unbound eicosanoid. Antibody-bound labeled eicosanoid is quantitated by counting in a liquid scintillation counter, and is correlated to concentration by a standard curve.

[1] = tested on: LT-dependent bronchoconstriction; assay: Inhibition of Bronchoconstriction in Guinea Pigs Induced by Exogenously Administered Antigen; format: in vivo, guinea pig (male); conditions: Cavia porcellus, 5 min, 5 min post-antigen challenge; for inhibition in vivo at 10 mg/kg: iv, 10 mg/kg i.v.
Protocol: 4. Inhibition of Brochoconstriction in Guinea Pigs Induced by Exogenously Administered Antigen
Male guinea pigs (Charles River, Wilmington, Mass.) were sensitized 3-4 weeks prior to antigen challenge by administration of 2 i.m. injections of ovalbumin, 1 into each hind limb (35 mg total). Sensitized animals (500-600 g) were fasted overnight prior to experimentation. Conscious animals were then dosed p.o. with drug or vehicle alone (0.5% Tween 80 in H2 O) at the indicated times prior to antigen challenge, or anesthetized animals were dosed i.v. with drug or vehicle alone (DMSO) 5 min prior to antigen challenge. Animals were anesthetized by urethane (2.8 g/kg i.p.). A carotid artery and jugular vein were cannulated to allow for the monitoring of blood pressure and the administration of drugs, respectively. The trachea was then cannulated and connected to a Harvard Apparatus rodent ventilator (S. Natick, Mass.). Spontaneous respiration was abolished by the administration of succinylcholine (2.5 mg/kg i.v.). The animals were then ventilated with room air at a rate of 65 breaths per min. Airway inflation pressure was measured using a Statham pressure transducer (Gould Instruments, Cleveland, Ohio) connected to the tracheal cannula via a side-arm and recorded on a Grass Instruments recorder (Quincy, Mass.). The tidal volume (approximately 10 cc/kg) was adjusted to give a baseline inflation pressure of 8-10 cm H2 O at end inspiration. Animals were then allowed 20 min to stabilize.
Following the stabilization period, animals were given i.v. injections of pyrilamine (5 mg/kg), propranolol (0.1 mg/kg) and indomethacin (10 mg/kg) at 15, 10 and 5 min, respectively, prior to antigen challenge. This pretreatment results in an LT-dependent bronchoconstriction following antigen challenge, which was accomplished by i.v. administration of ovalbumin (10 mg/kg). Only one bronchoconstriction per animal was induced. End-inspiratory inflation pressure (in cm H2 O over baseline) was measured at 5 min post-antigen challenge. A mean value and standard error for the % inhibition of control bronchoconstriction in each drug-treated group was then calculated.

[2] = 10 mg/kg, pretreatment period 6 hr

Row | Structure (SMILES) | % Inhibition of LTB4 (Lipoxygenase; 25 mg/kg, pretreatment period 3 hr) [%] | % Inhibition LTB4 Synthesis (LTB4 Synthesis; 25 mg/kg) [%] | % Inhibition of LTB4 (Lipoxygenase; [2]) [%] | inhibition in vivo at 25 mg/kg ([1]; po, 25 mg/kg p.o.) [%] | % Inhibition LTB4 Synthesis (LTB4 Synthesis; 10 mg/kg) [%] | inhibition in vivo at 10 mg/kg [1] [%] | % Inhibition of LTB4 (Lipoxygenase; 5 mg/kg, pretreatment period 6 hr) [%]
1 | Cc1oc(-c2ccccc2)nc1COc1cccc(CN(O)C(N)=O)c1 [Example 1, 1-Hydroxy-1-[3-(5-methyl-2-phenyl-oxazol-4-ylmethoxy)-benzyl]-urea] | 86 | 79 | – | – | – | – | –
2 | NC(=O)N(O)Cc1cccc(OCc2csc(-c3ccccc3)n2)c1 [Example 5, 1-Hydroxy-1-[3-(2-phenyl-thiazol-4-ylmethoxy)-benzyl]-urea] | – | – | 80 | 29 | 43 | – | –
3 | NC(=O)N(O)Cc1cccc(OCc2csc(-c3ccc(Cl)cc3)n2)c1 [Example 6, 1-Hydroxy-1-[3-[2-(4-chloro-phenyl)-thiazol-4-ylmethoxy]-benzyl]-urea] | – | – | 67 | – | – | 70 | –
4 | Cc1oc(-c2ccc(F)cc2)nc1COc1cccc(CN(O)C(N)=O)c1 [Example 9, 1-[3-[2-(4-fluorophenyl)-5-methyl-oxazol-4-ylmethoxy]-benzyl]-1-hydroxy-urea] | – | – | 50 | – | 27 | 65 | –
5 | Cc1oc(-c2ccccc2)nc1COc1cc(F)cc(CN(O)C(N)=O)c1 [Example 13, 1-[3-Fluoro-5-(5-methyl-2-phenyl-oxazol-4-ylmethoxy)-benzyl]-1-hydroxy-urea] | – | – | – | – | 17 | 29 | 52
